Test results taken from article PMC11011526, “Identification of Inhibitors of the Disease-Associated Protein Phosphatase Scp1 Using Antibody Mimetic Molecules” (International Journal of Molecular Sciences, 2024).

Experiments:
Scp3 = target: T1, Scp3 (Homo sapiens, UniProt O15194); assay: colorimetric pNPP phosphatase assay, absorbance […] nm; format: biochemical; details: 20 mM Na-maleate pH 5.5, 10 mM MgCl2; 10 mM pNPP; 37 °C; 7 min
T1 construct: gene CTDSPL; recombinant, GST tag and Myc-His6 tag
T1 sequence (O15194 1-276): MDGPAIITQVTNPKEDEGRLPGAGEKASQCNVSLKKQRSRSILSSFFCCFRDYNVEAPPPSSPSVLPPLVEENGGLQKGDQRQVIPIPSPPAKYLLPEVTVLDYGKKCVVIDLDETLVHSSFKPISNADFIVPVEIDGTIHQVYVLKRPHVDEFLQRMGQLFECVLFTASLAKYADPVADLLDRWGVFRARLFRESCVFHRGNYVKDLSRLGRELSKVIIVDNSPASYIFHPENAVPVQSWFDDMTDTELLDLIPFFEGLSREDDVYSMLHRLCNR

Scp1 [1] = target: T2, Scp1 (Homo sapiens, UniProt Q9GZU7); assay: as above; format: biochemical; details: 20 mM Na-maleate pH 5.5, 10 mM MgCl2; His6-Scp1 10 nM; no added adnectin
T2 construct: gene CTDSP1; recombinant in E. coli Rosetta, Talon purified; His6-Scp1 (kinetics) or GST-Scp1-Myc-His6 (specificity assay)
T2 sequence (Q9GZU7 1-261): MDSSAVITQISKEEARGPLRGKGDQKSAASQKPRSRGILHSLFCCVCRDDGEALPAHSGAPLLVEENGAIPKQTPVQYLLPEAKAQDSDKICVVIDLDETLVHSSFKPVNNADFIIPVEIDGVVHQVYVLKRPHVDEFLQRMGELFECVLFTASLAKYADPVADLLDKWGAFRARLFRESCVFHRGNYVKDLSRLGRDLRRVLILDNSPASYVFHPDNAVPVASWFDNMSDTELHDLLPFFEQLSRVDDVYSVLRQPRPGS

Scp2 = target: T3, Scp2 (Homo sapiens, UniProt O14595); assay: as above; format: biochemical; details: 20 mM Na-maleate pH 5.5, 10 mM MgCl2; 10 mM pNPP; 37 °C; 7 min
T3 construct: gene CTDSP2; recombinant, GST tag and Myc-His6 tag
T3 sequence (O14595 1-271): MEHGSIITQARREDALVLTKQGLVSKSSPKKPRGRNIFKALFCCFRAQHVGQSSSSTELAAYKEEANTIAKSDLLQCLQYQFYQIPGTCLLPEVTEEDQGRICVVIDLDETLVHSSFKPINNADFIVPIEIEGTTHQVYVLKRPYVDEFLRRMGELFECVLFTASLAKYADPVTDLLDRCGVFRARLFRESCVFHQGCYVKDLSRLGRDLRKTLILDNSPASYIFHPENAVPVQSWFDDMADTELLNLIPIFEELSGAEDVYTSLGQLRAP

Fcp1 = target: T4, Fcp1 (Homo sapiens, UniProt Q9Y5B0); assay: as above; format: biochemical; details: 20 mM Na-maleate pH 5.5, 10 mM MgCl2; 10 mM pNPP; 37 °C; 60 min
T4 construct: gene CTDP1; recombinant, GST tag and Myc-His6 tag
T4 sequence (Q9Y5B0 1-961): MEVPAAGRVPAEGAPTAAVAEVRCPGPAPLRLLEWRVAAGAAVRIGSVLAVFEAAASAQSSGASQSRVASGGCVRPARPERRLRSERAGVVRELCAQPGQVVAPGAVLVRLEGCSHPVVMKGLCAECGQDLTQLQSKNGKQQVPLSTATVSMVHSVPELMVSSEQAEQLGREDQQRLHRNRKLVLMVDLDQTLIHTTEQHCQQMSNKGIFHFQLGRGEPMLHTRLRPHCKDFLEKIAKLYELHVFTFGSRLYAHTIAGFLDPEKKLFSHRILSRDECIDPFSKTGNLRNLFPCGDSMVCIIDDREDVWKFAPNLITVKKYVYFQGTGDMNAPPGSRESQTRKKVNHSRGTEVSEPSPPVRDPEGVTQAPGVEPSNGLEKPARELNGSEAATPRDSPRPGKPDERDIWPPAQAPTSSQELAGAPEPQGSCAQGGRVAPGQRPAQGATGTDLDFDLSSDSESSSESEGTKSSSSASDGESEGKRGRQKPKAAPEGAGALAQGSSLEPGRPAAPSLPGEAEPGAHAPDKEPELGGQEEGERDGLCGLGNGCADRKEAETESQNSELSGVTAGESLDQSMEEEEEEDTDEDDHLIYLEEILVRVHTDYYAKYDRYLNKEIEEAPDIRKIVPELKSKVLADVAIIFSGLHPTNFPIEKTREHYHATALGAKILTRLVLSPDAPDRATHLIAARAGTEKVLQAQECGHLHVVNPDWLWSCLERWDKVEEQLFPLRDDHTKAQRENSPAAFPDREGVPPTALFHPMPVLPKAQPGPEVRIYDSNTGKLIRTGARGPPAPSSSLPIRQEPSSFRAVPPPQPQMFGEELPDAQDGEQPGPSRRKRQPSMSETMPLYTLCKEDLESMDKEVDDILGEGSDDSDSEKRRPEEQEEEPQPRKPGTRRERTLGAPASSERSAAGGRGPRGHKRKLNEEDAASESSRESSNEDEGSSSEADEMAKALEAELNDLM

Scp1 [2] = target: T2, Scp1; assay: competition ELISA against FG-1Adn binding; details: 100 µM rabeprazole; 20 mM Na-maleate pH 5.5, 150 mM NaCl, 10 mM MgCl2; R.T.; indirect, displacement of adnectin FG-1Adn
FG-1Adn (human) = assay: BLI; BLItz system, Advanced Kinetics mode; biotinylated FG-1Adn loaded on streptavidin biosensors; 20 mM Na-maleate (pH 5.5), 150 mM NaCl, 10 mM MgCl2, 0.05% Tween; 250 nM Scp1, 120 s association, 120 s dissociation; 1:1 Langmuir model

## O=[N+]([O-])c1ccc(OP(=O)(O)O)cc1 [pNPP]
Scp3
  colorimetric pNPP phosphatase assay, absorbance 410 nm: inhibitory effects of FG-1Adn inhibition against FCP/SCP phosphatases using pNPP as a substrate
Scp1 [1]
  colorimetric pNPP phosphatase assay, absorbance 410 nm: Lineweaver–Burk plot analysis was performed using pNPP as a substrate
Scp2
  colorimetric pNPP phosphatase assay, absorbance 410 nm: inhibitory effects of FG-1Adn inhibition against FCP/SCP phosphatases using pNPP as a substrate
Fcp1
  colorimetric pNPP phosphatase assay, absorbance 410 nm: inhibitory effects of FG-1Adn inhibition against FCP/SCP phosphatases using pNPP as a substrate

## COCCCOc1ccnc(C[S+]([O-])c2nc3ccccc3[nH]2)c1C (stereo not drawn) [rabeprazole]
Scp1 [2]
  almost complete inhibition of FG-1Adn binding: rabeprazole almost completely inhibited the binding of FG-1Adn to Scp1

B1: Scp1 (enzyme)
chain: T2 sequence (Q9GZU7 1-261)
FG-1Adn (human)
  Kd: 48.7 nM
